Active and inactive are the calls of the source. No cut-off for these calls is given here.
How the values were obtained:
[1] = target: T1, Xanthine dehydrogenase/oxidase (Bos taurus, UniProt P80457); experiment: Inhibition of bovine milk xanthine oxidase at 10 uM using xanthine as substrate preincubated for 3 mins followed by substrate addition and measured at 1 min for 10 mins relative to control; conditions: cattle
Mus musculus [2] = experiment: Hypouricemic effect in ICR mouse model of potassium oxonate and hypoxanthine-induced acute hyperuricemia assessed as reduction in serum uric acids level at 5 mg/kg, po dosed 1 hr after potassium oxonate and hypoxanthine challenge and measured after 1 hr; type: functional, organism-based
[3] = target: T1, Xanthine dehydrogenase/oxidase; experiment: Inhibition of bovine milk xanthine oxidase using xanthine as substrate preincubated for 3 mins followed by substrate addition and measured at 1 min for 10 mins
Mus musculus [4] = experiment: Hypouricemic effect in ICR mouse model of potassium oxonate and hypoxanthine-induced acute hyperuricemia assessed as reduction in serum uric acids level at 20 mg/kg, po dosed 1 hr after potassium oxonate and hypoxanthine challenge and measured after 1 hr; type: functional, organism-based

T1 sequence (P80457 whole entry): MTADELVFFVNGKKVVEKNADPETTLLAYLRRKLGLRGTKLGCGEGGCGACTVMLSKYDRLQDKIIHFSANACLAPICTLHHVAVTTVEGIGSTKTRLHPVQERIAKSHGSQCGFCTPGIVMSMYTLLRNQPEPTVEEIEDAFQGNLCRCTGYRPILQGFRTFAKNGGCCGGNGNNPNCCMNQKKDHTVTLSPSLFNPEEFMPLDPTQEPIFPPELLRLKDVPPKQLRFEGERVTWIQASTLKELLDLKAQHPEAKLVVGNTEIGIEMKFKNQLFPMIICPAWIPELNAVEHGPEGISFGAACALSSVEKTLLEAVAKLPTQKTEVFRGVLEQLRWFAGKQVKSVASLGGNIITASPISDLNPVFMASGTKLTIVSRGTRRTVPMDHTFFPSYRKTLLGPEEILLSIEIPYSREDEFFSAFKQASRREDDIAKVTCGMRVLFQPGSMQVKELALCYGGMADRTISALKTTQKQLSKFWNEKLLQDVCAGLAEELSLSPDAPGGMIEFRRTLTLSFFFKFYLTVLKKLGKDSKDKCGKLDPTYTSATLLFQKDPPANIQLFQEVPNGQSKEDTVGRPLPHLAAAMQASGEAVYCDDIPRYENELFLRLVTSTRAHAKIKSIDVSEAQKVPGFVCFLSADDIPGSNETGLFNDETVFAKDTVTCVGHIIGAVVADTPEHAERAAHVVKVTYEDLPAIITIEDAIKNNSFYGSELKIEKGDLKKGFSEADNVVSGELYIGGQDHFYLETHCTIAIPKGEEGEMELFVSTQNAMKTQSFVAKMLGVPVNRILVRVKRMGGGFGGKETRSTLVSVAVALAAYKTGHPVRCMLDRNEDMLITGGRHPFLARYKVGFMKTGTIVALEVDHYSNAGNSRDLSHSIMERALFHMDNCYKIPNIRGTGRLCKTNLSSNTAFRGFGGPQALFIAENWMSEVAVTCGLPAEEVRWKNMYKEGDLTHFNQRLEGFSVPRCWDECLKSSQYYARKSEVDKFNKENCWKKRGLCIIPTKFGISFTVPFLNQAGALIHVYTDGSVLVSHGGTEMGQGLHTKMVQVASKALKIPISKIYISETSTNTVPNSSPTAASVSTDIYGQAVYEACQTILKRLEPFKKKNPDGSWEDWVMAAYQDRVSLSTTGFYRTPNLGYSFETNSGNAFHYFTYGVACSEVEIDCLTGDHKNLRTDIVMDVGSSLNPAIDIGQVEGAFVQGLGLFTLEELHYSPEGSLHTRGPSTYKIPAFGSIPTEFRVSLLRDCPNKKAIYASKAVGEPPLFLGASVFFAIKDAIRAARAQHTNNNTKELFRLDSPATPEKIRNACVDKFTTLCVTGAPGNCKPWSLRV

| Structure (SMILES) | inhibition at 10 µM [1] [%] | other results |
| --- | --- | --- |
| O=C(O)c1cc(-c2ccccc2)on1 | 4.2 |  |
| Cc1cc(C(=O)O)nn1-c1ccccc1 | 13.9 |  |
| Cc1nc(-c2ccc(OCC(C)C)c(C#N)c2)sc1C(=O)O [FEBUXOSTAT] | 98.5 | Activity (Mus musculus [2]): Active |
| Cc1nc(-c2ccc(OCC(C)C)c([N+](=O)[O-])c2)sc1C(=O)O |  | IC50 [3]: 33.4 nM; Activity (Mus musculus [4]): Active |
| CC(C)COc1ccc(-c2nc(C(=O)O)cs2)cc1[N+](=O)[O-] |  | IC50 [3]: 48.6 nM; Activity (Mus musculus [4]): Active |
| Cc1nc(-c2ccccc2)oc1C(=O)O | 12.5 |  |
| Cc1nc(-c2ccccc2)sc1C(=O)O | 37.6 |  |

Now from value to compound, other results behind:

| inhibition at 10 µM [1] [%] | Structure (SMILES) | other results |
| --- | --- | --- |
| 32.8 | O=C(O)c1csc(-c2ccccc2)n1 |  |
| 18.6 | O=C(O)c1nc(-c2ccccc2)cs1 |  |

Reference: ChEMBL document CHEMBL4330135, “Discovery of 2-phenylthiazole-4-carboxylic acid, a novel and potent scaffold as xanthine oxidase inhibitors” (Bioorg Med Chem Lett, 2019)
